Measurements from PMC4782163, “A Novel Pentapeptide Targeting Integrin β3-Subunit Inhibits Platelet Aggregation and Its Application in Rat for Thrombosis Prevention” (Frontiers in Pharmacology, 2016).
Where two headings read alike, the source gives them in different places. Where a SMILES comes first, the peptide text is derived from it.

Tests used:
Kunming mice = test system: Kunming mice
Method: Kunming mice (n = 6 for each group) were intravenously injected with different concentrations of P1Cm, ranging from 0.075 to 6 mmol/kg (10x IC90), or tirofiban ranging from 0.025 to 2 mmol/kg (10x IC90). Blood pressure and breath were monitored after injection, and the mesentery were observed under microscope after the animals were sacrificed. Mortality within the next 3 days was recorded.

[1] = test system: artery-vein shunt thrombus formation; experiment: Artery-vein shunt thrombosis model; assay type: in vivo, rat
Method: Fifty male Wistar rats (250–300 g) were randomly divided into five groups: high-, middle-, and low-dose groups of P1Cm, a saline group, and a tirofiban group (n = 10 per group). The animals were treated with the same concentrations as in the previous thrombosis model, 0.15, 0.30, or 0.45 mmoL/kg of P1Cm, 0.15 mmoL/kg of tirofiban, or an equal volume of saline by tail vein injection after being anesthetized by an intraperitoneal injection of ketamine (100 mg/kg). The operation was carried out as previously reported (Sato et al., [1998]; Jing et al., [2011]). Briefly, the right carotid and left jugular veins were separated. An 8 cm silk thread was placed inside a polyethylene tube filled with heparin sodium solution (50 IU/mL). The right carotid and left jugular veins were connected with the tube. One end of the tube containing the thread was inserted into the left jugular vein, and the other end was inserted into the right carotid artery. Blood was allowed to flow from the right carotid artery to the left jugular vein through the polyethylene tube for 15 min. The tube was then removed, and the weight of the attached wet thrombus on the thread was measured immediately. The rats were sacrificed through an intravenous injection of air.

[2] = test system: carotid arterial thrombosis; experiment: Ferric chloride-induced carotid arterial thrombosis model (CDFI, pathology); assay type: in vivo, rat; settings: 0.15 mmol/kg tail vein, Wistar rats, n = 6, mean ± SD
Method: Thirty male Wistar rats (250–300 g) were randomly divided into five groups: high-, middle-, and low-dose treated groups of P1Cm, a saline group, and a tirofiban group (n = 6 per group). The rats were operated on the right common carotid artery (Bird et al., [2008]). Briefly, the rat was first anesthetized by an intraperitoneal injection of ketamine (100 mg/kg). The fascia was bluntly dissected to expose the right common carotid artery immediately after a dosage of 0.15, 0.30, or 0.45 mmoL/kg of P1Cm, 0.15 mmoL/kg of tirofiban, or an equal volume of saline applied accordingly via tail vein injection. A 3 × 4 mm piece of filter paper saturated with ferric chloride (10% solution) was placed under the right carotid artery for 20 min and then removed. Thrombus size and blood flow were detected by color Doppler flow imaging (CDFI) (13 MHz phased-array transducer, LOGIQ S6 Color Doppler Ultrasonographer, GE, USA; Chua et al., [2012]). The animals were kept anesthetized during the CDFI measurements.
To obtain fresh samples immediately after measurement, the animals were sacrificed through an intravenous injection of air, and the injured carotid artery was collected for pathological examination. Carotid artery samples were fixed with 10% neutral buffered formalin and embedded in paraffin wax for routine histological analysis with hematoxylin and eosin staining. Morphometric analysis was carried out using a Leica Q500/W microscope (Leica Microsystems, Wetzlar, Germany). The antithrombosis effect was evaluated by calculating the percentage of carotid artery area covered by the thrombus (Hosokawa et al., [2011]).

plasma coagulation = experiment: Coagulation parameters in plasma (FIB, TT, PT, APTT)
[3] = dosage IC50 (P1Cm 0.075, tirofiban 0.025 mmol/kg), i.v., n = 6, within 3 days
[4] = dosage IC90, i.v., n = 6, within 3 days

SMILES | Mortality (Kunming mice; dosage 10x IC90 (P1Cm 6, tirofiban 2 mmol/kg), i.v., n = 6, within 3 days) | Mortality (Kunming mice; [3]) | Mortality (Kunming mice; [4]) | EMW (thrombosis wet weight) ([1]; 0.15 mmol/kg tail vein, Wistar rats, 15 min shunt, n = 10, mean ± SD) [mg] | Decrease of thrombus weight vs saline group ([1]; 0.15 (mM in the source), rats) [%] | PSFV (peak systolic flow velocity) [2] [cm/s] | Thrombosis SIZE/area [2] | VSR (vascular stenosis rate) [2] [%] | Effect on coagulation parameters (plasma coagulation; 0.15 mM, P < 0.05) | FIB (plasma coagulation; tirofiban group (0.15 mM), 5 min 37°C) [g/L] | Mortality (Kunming mice; mouse, in vivo, iv)
CCCCS(=O)(=O)N[C@@H](Cc1ccc(OCCCCC2CCNCC2)cc1)C(=O)O [Tirofiban] | 2/6 | 0 | 0/6 | 27.51 ± 4.03 | 39.92 | 84.2 ± 3.50 | 0.007 ± 0.001^* cm^2 | 28.25 ± 5.83 | apparently inhibited the coagulation and affected the parameters | 4.23 ± 0.71 | –
CC[C@H](C)[C@H](N)C(=O)N[C@@H](CCCNC(=N)N)C(=O)N[C@H](C(=O)N1CCC[C@H]1C(=O)N[C@@H](CCCCN)C(=O)O)[C@@H](C)O [Peptide P1Cm] (H-IRTPK-OH) | – | 0 | 0 | – | – | – | – | – | – | – | 0
